From patent US7250515B2, “Thiazolinone 3,4-disubstituted quinolines” (Hoffman-La Roche Inc., priority 2004, dated 2007)
Structures can show the parent of a compound that is named as a salt.

biological target: T1, recombinant human CDK1/Cyclin B complex (Homo sapiens, UniProt P06493); assay: CDK1/Cyclin B kinase assay (FlashPlate or HTRF), Rb protein substrate; format: biochemical; settings: Ki=IC50/(1+[S]/Km)
T1 construct: made in house; host or cells: High Five insect cells (baculovirus); Rb substrate made in E. coli M15
Experimental: To determine inhibition of CDK1 activity, either FlashPlate™ (NEN™-Life Science Products) assay or HTRF assay was performed. Both types of kinase assays were carried out using recombinant human CDK1/Cyclin B complex. GST-cyclinB (GST-cycB) and CDK1cDNA clones in baculovirus vectors were provided by Dr. W. Harper at the Baylor College of Medicine, Houston, Tex. Proteins were co-expressed in High Five™ insect cells and the complex was purified on glutathione Sepharose resin (Pharmacia, Piscataway, N.J.) as previously described (Harper, J. W. et al. Cell 1993, 75, 805-816). A 6×-Histidine tagged truncated form of retinoblastoma (Rb) protein (amino acid 386-928) was used as the substrate for the CDK1/Cyclin B assay (the expression plasmid was provided by Dr. Veronica Sullivan, Department of Molecular Virology, Roche Research Centre, Welwyn Garden City, United Kingdom). The Rb protein is a natural substrate for phosphorylation by CDK1 (see Herwig and Strauss Eur. J. Biochem. Vol. 246 (1997) pp. 581-601 and the references cited therein). The expression of the 62 Kd protein was under the control of an IPTG inducible promoter in an M15 E. coli strain. Cells were lysed by sonication and purification was carried out by binding lysates at pH 8.0 to a Ni-chelated agarose column pretreated with 1 mM imidazole. The resin was then washed several times with incrementally decreasing pH buffers to pH 6.0, and eluted with 500 mM imidazole. Eluted protein was dialyzed against 20 mM HEPES pH 7.5, 30% glycerol, 200 mM NaCl, and 1 mM DTT. Purified Rb fusion protein stocks were quantitated for protein concentration, aliquoted, and stored at −70° C.
For the FlashPlate kinase assay, 96-well FlashPlates were coated with Rb protein at 10 μg/ml, using 100 μl per well. Plates were incubated at 4° C. overnight or at room temperature for 3 hours on a shaker. To control for nonspecific phosphorylation, one row of wells was coated with 100 μl/well coating buffer (20 mM HEPES, 0.2 M NaCl). Plates were then washed twice with wash buffer (0.01% Tween 20 in phosphate-buffered saline). Compounds to be tested (“test compounds”) were added to the wells at 5× final concentration. Reactions were initiated by immediate addition of 40 μl reaction mix (25 mM HEPES, 20 mM MgCl2, 0.002% Tween 20, 2 mM DTT, 1 μM ATP, 4 nM 33P-ATP) and a sufficient amount of enzyme to give counts that were at least 10-fold above background. Plates were incubated at room temperature on a shaker for 30 minutes. Plates were washed four times with the wash buffer, sealed, and counted on the TopCount scintillation counter (Packard Instrument Co., Downers Grove, Ill.]. The percent inhibition of Rb phosphorylation, which is a measure of the inhibition of CDK activity, was determined according to the following formula:
[formula] where “test compound” refers to the average counts per minute of the test duplicates, “nonspecific” refers to the average counts per minute when no CDK1/Cyclin B, etc., was added, and “total” refers to the average counts per minute when no compound was added. The IC50 value is the concentration of test compound that reduces by 50% the protein-kinase induced incorporation of the radiolabel under the test conditions described. The value of the inhibitor constant Ki is calculated by the following: Ki=IC50/(1+[S]/Km), where [S] is the ATP concentration and Km is Michaelis constant.
The Homofeneous Time Resolved Fluorescence (HTRF) kinase assay was carried out in 96-well polypropylene plates (BD Biosciences, Bedford, Mass.). Test compounds were first dissolved in DMSO, and then diluted in kinase assay buffer 1 (25 mM HEPES, pH7.0, 8 mM MgCl2, 1.5 mM DTT, and 162 μM ATP) with DMSO concentration at 15%. The CDK1/Cyclin B enzyme was diluted in kinase assay buffer 2 (25 mM HEPES, pH 7.0, 8 mM MgCl2, 0.003% Tween 20, 0.045% BSA, 1.5 mM DTT, and 0.675 μM Rb protein). […]

T1 sequence (P06493 whole entry): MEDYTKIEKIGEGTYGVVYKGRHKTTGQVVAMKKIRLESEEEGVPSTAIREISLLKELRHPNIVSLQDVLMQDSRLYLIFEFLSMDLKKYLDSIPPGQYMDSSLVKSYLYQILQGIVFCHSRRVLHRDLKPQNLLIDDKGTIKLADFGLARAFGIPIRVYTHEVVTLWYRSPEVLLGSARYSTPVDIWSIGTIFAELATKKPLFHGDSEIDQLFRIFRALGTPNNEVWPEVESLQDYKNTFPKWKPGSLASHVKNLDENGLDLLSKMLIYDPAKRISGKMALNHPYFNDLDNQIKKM
T1 sequence (P14635 whole entry partner): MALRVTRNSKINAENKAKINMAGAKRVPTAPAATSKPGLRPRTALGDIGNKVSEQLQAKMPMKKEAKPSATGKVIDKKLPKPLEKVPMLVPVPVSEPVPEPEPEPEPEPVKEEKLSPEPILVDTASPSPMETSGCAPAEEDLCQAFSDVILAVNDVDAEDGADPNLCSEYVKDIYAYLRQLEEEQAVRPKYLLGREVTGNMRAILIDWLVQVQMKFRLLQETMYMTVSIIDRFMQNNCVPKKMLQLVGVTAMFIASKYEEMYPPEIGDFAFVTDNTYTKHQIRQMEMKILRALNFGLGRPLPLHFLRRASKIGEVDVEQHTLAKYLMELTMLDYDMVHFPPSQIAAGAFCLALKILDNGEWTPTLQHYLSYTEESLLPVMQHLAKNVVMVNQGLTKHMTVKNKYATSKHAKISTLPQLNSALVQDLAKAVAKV

Ki	SMILES
8 nM	CCOc1c(C#N)cnc2ccc(/C=C3\SC(N)=NC3=O)cc12 [Example 15, 6-[2-Amino-4-oxo-4H-thiazol-(5Z)-ylidenemethyl]-4-ethoxy-quinoline-3-carbonitrile]
65 nM	N#Cc1cnc2ccc(/C=C3\SC(N)=NC3=O)cc2c1SCCCO [Example 50, 6-[2-Amino-4-oxo-4H-thiazol-(5Z)-ylidenemethyl]-4-(3-hydroxy-propylsulfanyl)-quinoline-3-carbonitrile]
28 nM	CC(C)Oc1c(C#N)cnc2ccc(/C=C3\SC(NN)=NC3=O)cc12 [Example 60, 6-[2-Hydrazino-4-oxo-4H-thiazol-(5Z)-ylidenemethyl]-4-isopropoxy-quinoline-3-carbonitrile hydrochloride salt]
179 nM	COC(=O)c1cnc2ccc(/C=C3\SC(N[C@@H](CO)c4ccccc4)=NC3=O)cc2c1OC [Example 5, 6-[2-((R)-2-Hydroxy-1-phenyl-ethylamino)-4-oxo-4H-thiazol-(5Z)-ylidenemethyl]-4-methoxy-quinoline-3-carboxylic acid methyl ester]
958 nM	COc1c(C(=O)N(C)C)cnc2ccc(/C=C3\SC(N[C@@H]4C[C@H]4c4ccccc4)=NC3=O)cc12 [Example 10, 4-Methoxy-6-[4-oxo-2-((1R,2S)-2-phenyl-cyclopropylamino)-4H-thiazol-(5Z)-ylidenemethyl]-quinoline-3-carboxylic acid dimethylamide]
184 nM	N#Cc1cnc2ccc(/C=C3\SC(N)=NC3=O)cc2c1OC1CCNCC1 [Example 30, 6-[2-Amino-4-oxo-4H-thiazol-(5Z)-ylidenemethyl]-4-(piperidin-4-yloxy)-quinoline-3-carbonitrile hydrochloride]
228 nM	CCOc1c(C#N)cnc2ccc(/C=C3\SC(NCCn4ccnc4)=NC3=O)cc12 [Example 20, 4-Ethoxy-6-[2-(2-imidazol-1-yl-ethylamino)-4-oxo-4H-thiazol-(5Z)-ylidenemethyl]-quinoline-3-carbonitrile]
1000 nM	CCOc1c(C#N)cnc2ccc(/C=C3\SC(NCCOCCOC)=NC3=O)cc12 [Example 25, 6-[2-[2-(2-methoxy-ethoxy)-ethylamino]-4-oxo-4H-thiazol-(5Z)-ylidenemethyl]-4-ethoxy-quinoline-3-carbonitrile]
6 nM	CC(C)(C)COc1c(C#N)cnc2ccc(/C=C3\SC(NC4CC4)=NC3=O)cc12 [Example 70, 6-[2-Cyclopropylamino-4-oxo-4H-thiazol-(5Z)-ylidenemethyl]-4-(2,2-dimethyl-propoxy)-quinoline-3-carbonitrile]
16 nM	CC(C)Sc1c(C#N)cnc2ccc(/C=C3\SC(N)=NC3=O)cc12 [Example 40, 6-[2-amino-4-oxo-4H-thiazol-(5Z)-ylidenemethyl]-4-isopropylsulfanyl-quinoline-3-carbonitrile]

SMILES	Ki
CCCCOc1c(C#N)cnc2ccc(/C=C3\SC(N)=NC3=O)cc12 [Example 80, 6-[2-Amino-4-oxo-4H-thiazol-(5Z)-ylidenemethyl]-4-butoxy-quinoline-3-carbonitrile]	1 nM
